What was measured:
[1] = system: HCT116; experiment: Cell viability/proliferation; format: cell-based; details: FIG. 10, preliminary analysis
Description: (§1) Example 5: In a preliminary analysis, the inventors investigated the effect of 16 cannabinoid compounds (Δ9-THCV-C3, Δ9-THCVA-C3 A, Δ9-THCA-C5 A, Δ9-THC-C5, Δ8-THC-C5, CBN-C5, CBL-C5, CBLA-C5 A, (E)-CBG-C5, (E)-CBGA-C5 A, CBD-C5, CBDV-C3, CBDVA-C3, CBDA-C5, CBC-C5, and CBCA-C5 A) on cell viability/proliferation in two colorectal carcinoma cell lines (HCT116 and CaCo2) (FIG. 10).

[2] = system: CaCo2; experiment: Cell viability/proliferation; format: cell-based; details: FIG. 10, preliminary analysis
Description: as §1

[3] = system: human A375, SK-MEL-28, and CHL-1 melanoma cell lines; details: A375, SK-MEL-28, CHL-1; Armstrong et al.; cited from earlier work
[4] = system: melanoma cell lines (COLO38 and OCM-1); details: CB2 and CB1 expressing melanoma cell lines COLO38 and OCM-1; cited from earlier work

| Molecule | effect in reducing cell viability [1] | effect in reducing cell viability [2] | effect of treatment on melanoma cell lines [3] | viability [4] |
| --- | --- | --- | --- | --- |
| CCCCCc1cc(O)c2c(c1)OC(C)(CCC=C(C)C)C=C2 (racemic) [CBC, (±)-cannabichromene] | strongest effect in reducing cell viability | strongest effect in reducing cell viability | – | – |
| CCCCCc1cc(O)c2c(c1)OC(C)(C)c1ccc(C)cc1-2 [CBN, cannabinol] | strongest effect in reducing cell viability | strongest effect in reducing cell viability | – | – |
| CCCCCc1cc(O)c(C/C=C(\C)CCC=C(C)C)c(O)c1 [CBG, cannabigerol] | strongest effect in reducing cell viability | strongest effect in reducing cell viability | – | – |
| (−)-cannabidiol [CBD, reference compound] | strongest effect in reducing cell viability | strongest effect in reducing cell viability | – | – |
| CCCCCc1cc(O)c2c(c1)OC(C)(C)[C@@H]1CCC(C)=C[C@@H]21 [Δ9THC, Δ^9-tetrahydrocannabinol, reference compound] | strongest effect in reducing cell viability | strongest effect in reducing cell viability | activation of autophagy, loss of cell viability, and activation of apoptosis | – |
| Cc1c(C(=O)c2cccc3ccccc23)c2cccc3c2n1[C@H](CN1CCOCC1)CO3 [WIN55,212-2] | – | – | – | reduce viability in a CB1/CB2-independent manner |
| CCCCCc1cc(O)c2c(c1)OC(C)(C)[C@@H]1CC=C(C)C[C@@H]21 (relative stereo) [Δ8THC, (−)-Δ^8-trans-(6aR,10aR)-Δ^8-tetrahydrocannabinol] | strongest effect in reducing cell viability | strongest effect in reducing cell viability | – | – |

Reference: patent US20260000684A1, “CANNABINOID COMPOSITIONS AGAINST CANCER, THEIR IDENTIFICATION AND PERSONALIZATION OF CANNABIS-BASED CANCER THERAPY” (UNIVERZA V MARIBORU, priority 2022, published 2026)
